# ± gives the standard deviation of the averaged measurements.
# What was measured:
# GEFITINIB = compound: COc1cc2ncnc(Nc3ccc(F)c(Cl)c3)c2cc1OCCCN1CCOCC1 [GEFITINIB]; test: surviving fraction relative to DMSO-only wells; higher = less growth inhibition; conditions: exposure time: 5 days
# In short: (§1)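 Tumour cell lines were grown to log phase and seeded at 250–500 cells per well in 384-well plates. They were exposed continuously to inhibitors at 0.5, 1, 5, 10, 50, 100, 500 and 1000 nM for five days, beginning 24 hours after seeding. Surviving fraction is CellTiter-Glo luminescence normalised to the median of DMSO-only wells.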
# CELECOXIB = compound: Cc1ccc(-c2cc(C(F)(F)F)nn2-c2ccc(S(N)(=O)=O)cc2)cc1 [CELECOXIB]; test: as above; conditions: exposure time: 5 days
# In short: as §1
Test System,surviving fraction (GEFITINIB; 0.5 nM),surviving fraction (GEFITINIB; 1 nM),surviving fraction (GEFITINIB; 5 nM),surviving fraction (GEFITINIB; 10 nM),surviving fraction (GEFITINIB; 50 nM),surviving fraction (GEFITINIB; 100 nM),surviving fraction (GEFITINIB; 500 nM),surviving fraction (GEFITINIB; 1000 nM),surviving fraction (CELECOXIB; 0.5 nM),surviving fraction (CELECOXIB; 1 nM),surviving fraction (CELECOXIB; 5 nM),surviving fraction (CELECOXIB; 10 nM),surviving fraction (CELECOXIB; 50 nM),surviving fraction (CELECOXIB; 100 nM),surviving fraction (CELECOXIB; 500 nM),surviving fraction (CELECOXIB; 1000 nM)
VP229 BREAST,1.14 ± 0.062,1.08 ± 0.09,1.07 ± 0.033,0.974 ± 0.098,0.875 ± 0.084,0.681 ± 0.042,0.347 ± 0.028,0.281 ± 0.008,1.15 ± 0.15,1.21 ± 0.19,1.21 ± 0.12,1.12 ± 0.13,1.15 ± 0.052,1.27 ± 0.03,1.25 ± 0.076,1.4 ± 0.049
HMT3552 BREAST,0.987 ± 0.065,1 ± 0.052,0.97 ± 0.038,0.952 ± 0.018,0.946 ± 0.048,0.94 ± 0.036,0.94 ± 0.017,0.856 ± 0.043,1.07 ± 0.057,1.07 ± 0.07,1.09 ± 0.026,1.11 ± 0.038,1.16 ± 0.019,1.18 ± 0.062,1.19 ± 0.078,1.27 ± 0.041
CAL51 BREAST,1.01 ± 0.089,0.995 ± 0.07,1.01 ± 0.015,1 ± 0.036,1.08 ± 0.035,1.02 ± 0.016,1.13 ± 0.015,1.07 ± 0.066,1.03 ± 0.023,1.04 ± 0.056,0.991 ± 0.026,0.998 ± 0.08,1.07 ± 0.027,1.11 ± 0.03,1.07 ± 0.021,1.05 ± 0.064
MDAMB361 BREAST,0.861 ± 0.02,0.851 ± 0.071,0.908 ± 0.025,1 ± 0.042,0.89 ± 0.14,0.859 ± 0.15,0.834 ± 0.092,0.834 ± 0.13,0.857 ± 0.13,0.895 ± 0.013,0.897 ± 0.12,0.896 ± 0.081,0.857 ± 0.17,0.89 ± 0.21,0.909 ± 0.091,0.968 ± 0.17
22RV1 PROSTATE,1 ± 0.023,0.984 ± 0.18,0.979 ± 0.085,1 ± 0.058,0.987 ± 0.18,1.03 ± 0.15,1.04 ± 0.17,1.03 ± 0.12,1.02 ± 0.059,1.06 ± 0.082,0.996 ± 0.088,1.03 ± 0.025,0.956 ± 0.17,1.01 ± 0.16,1.02 ± 0.12,1.06 ± 0.035
MDAMB453 BREAST,1.09 ± 0.045,1.07 ± 0.078,1.19 ± 0.078,1.1 ± 0.024,1.14 ± 0.053,1.13 ± 0.087,1.06 ± 0.05,1.04 ± 0.039,1.07 ± 0.076,1.1 ± 0.079,1.09 ± 0.072,1.18 ± 0.1,1.14 ± 0.021,1.12 ± 0.03,1.04 ± 0.044,1.09 ± 0.04
C33A CERVIX,0.925 ± 0.067,1.01 ± 0.063,1.01 ± 0.018,0.969 ± 0.049,0.91 ± 0.052,0.973 ± 0.02,0.551 ± 0.054,0.457 ± 0.058,0.897 ± 0.037,0.951 ± 0.11,1.01 ± 0.083,0.954 ± 0.037,0.932 ± 0.11,1.04 ± 0.088,0.981 ± 0.13,1.11 ± 0.035
LNCAP PROSTATE,1.1 ± 0.22,0.915 ± 0.067,0.9827 ± 0.0059,0.998 ± 0.043,0.939 ± 0.032,0.947 ± 0.03,1.03 ± 0.08,0.947 ± 0.12,1.02 ± 0.042,0.956 ± 0.067,0.986 ± 0.057,1.01 ± 0.081,0.919 ± 0.012,0.998 ± 0.083,0.885 ± 0.057,0.94 ± 0.065
SCC90 HEADNECK,1.15 ± 0.1,1.06 ± 0.15,1.03 ± 0.023,0.85 ± 0.051,0.804 ± 0.019,0.651 ± 0.057,0.474 ± 0.044,0.465 ± 0.054,0.978 ± 0.063,1.09 ± 0.13,1.09 ± 0.11,1.01 ± 0.077,1.13 ± 0.11,1.01 ± 0.077,0.93 ± 0.048,1.01 ± 0.15

# Reference: the supplement of paper PMC6045584
